System: NCI-H211 complex spheroid viability
Experiment: Anticancer human tumor NCI-H211 cell line growth inhibition [LSD1];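 note: luminescent viability read after seven days of drug exposure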;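 for viability, T/C: 100% = DMSO vehicle control viability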
Settings: for IC50: curve of first compound; for viability, T/C: stronger effect = lower value
How it was run: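 Multicellular complex spheroids of tumor cells with human endothelial cells (HUVEC) and mesenchymal stem cells; the LSD1 inhibitor iadademstat was combined with standard-of-care or investigational agents. Top concentration at or near clinical Cmax, half-log dilutions; final DMSO ≤0.25%.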

[1] = second compound 0.1 µM, first compound 0.00949 µM
[2] = second compound 0.1 µM, first compound 0.03 µM
[3] = second compound 0.1 µM, first compound 0.0949 µM
[4] = second compound 0.1 µM, first compound 0.3 µM
[5] = second compound 0.316 µM, first compound 0.00949 µM
[6] = second compound 0.316 µM, first compound 0.03 µM
[7] = second compound 0.316 µM, first compound 0.0949 µM
[8] = second compound 0.316 µM, first compound 0.3 µM
[9] = second compound 1 µM, first compound 0.00949 µM
[10] = second compound 1 µM, first compound 0.03 µM
[11] = second compound 1 µM, first compound 0.0949 µM
[12] = second compound 1 µM, first compound 0.3 µM
[13] = second compound 3.16 µM, first compound 0.00949 µM
[14] = second compound 3.16 µM, first compound 0.03 µM
[15] = second compound 3.16 µM, first compound 0.0949 µM
[16] = second compound 3.16 µM, first compound 0.3 µM
[17] = second compound 10 µM, first compound 0.00949 µM
[18] = second compound 10 µM, first compound 0.03 µM
[19] = second compound 10 µM, first compound 0.0949 µM
[20] = second compound 10 µM, first compound 0.3 µM

For `CCN(c1cc(-c2ccc(CN3CCOCC3)cc2)cc(C(=O)NCc2c(C)cc(C)[nH]c2=O)c1C)C1CCOCC1` + NC1CCC(NC2CC2c2ccccc2)CC1, the IC50 (second compound 0.1 µM) was greater than 3000 nM, the IC50 (second compound 0.316 µM) was greater than 3000 nM and the IC50 (second compound 1 µM) was greater than 3000 nM. For the same molecule, the IC50 (second compound 3.16 µM) was 3000 nM, the IC50 (second compound 10 µM) was less than 9.49 nM and the viability, T/C [1] was 76%. The viability, T/C [2] was 60.9%, the viability, T/C [3] was 66.9% and the viability, T/C [4] was 50.1%. It also gave a viability, T/C (second compound 0.1 µM, first compound 0.949 µM) of 56.8%, a viability, T/C (second compound 0.1 µM, first compound 3 µM) of 64.2% and a viability, T/C [5] of 66.3%. The viability, T/C [6] was 68.5%, the viability, T/C [7] was 72.2% and the viability, T/C [8] was 59.9%. It also gave a viability, T/C (second compound 0.316 µM, first compound 0.949 µM) of 55.1%, a viability, T/C (second compound 0.316 µM, first compound 3 µM) of 60% and a viability, T/C [9] of 60.3%. It also gave a viability, T/C [10] of 63.8%, a viability, T/C [11] of 55.4% and a viability, T/C [12] of 63.7%. For the same molecule, the viability, T/C (second compound 1 µM, first compound 0.949 µM) was 58.3%, the viability, T/C (second compound 1 µM, first compound 3 µM) was 59.1% and the viability, T/C [13] was 60%. For the same molecule, the viability, T/C [14] was 48.4%, the viability, T/C [15] was 54.3% and the viability, T/C [16] was 49.9%. The viability, T/C (second compound 3.16 µM, first compound 0.949 µM) was 48.7%, the viability, T/C (second compound 3.16 µM, first compound 3 µM) was 54.9% and the viability, T/C [17] was 40.4%. The viability, T/C [18] was 33.3%, the viability, T/C [19] was 30.8% and the viability, T/C [20] was 26%. It also gave a viability, T/C (second compound 10 µM, first compound 0.949 µM) of 21.1% and a viability, T/C (second compound 10 µM, first compound 3 µM) of 23.7%.
Molecule `Nc1ncn(C2CC(O)C(CO)S2)c(=O)n1` (stereo not given) + NC1CCC(NC2CC2c2ccccc2)CC1 has an IC50 (second compound 0.1 µM) of less than 0.949 nM, an IC50 (second compound 0.316 µM) of 1.19 nM and an IC50 (second compound 1 µM) of 1.01 nM. It also gave an IC50 (second compound 3.16 µM) of less than 0.949 nM, an IC50 (second compound 10 µM) of less than 0.949 nM and a viability, T/C (second compound 0.1 µM, first compound 0.000949 µM) of 47.8%. It also gave a viability, T/C (second compound 0.1 µM, first compound 0.003 µM) of 27.1%, a viability, T/C [1] of 8.74% and a viability, T/C [2] of 3.26%. The viability, T/C [3] was 1.8%, the viability, T/C [4] was 1.91% and the viability, T/C (second compound 0.316 µM, first compound 0.000949 µM) was 55.8%. For the same molecule, the viability, T/C (second compound 0.316 µM, first compound 0.003 µM) was 26.6%, the viability, T/C [5] was 12.1% and the viability, T/C [6] was 3.64%. For the same molecule, the viability, T/C [7] was 2.15%, the viability, T/C [8] was 1.98% and the viability, T/C (second compound 1 µM, first compound 0.000949 µM) was 51.4%. For the same molecule, the viability, T/C (second compound 1 µM, first compound 0.003 µM) was 26.6%, the viability, T/C [9] was 8.75% and the viability, T/C [10] was 3.07%. The viability, T/C [11] was 2.09%, the viability, T/C [12] was 1.41% and the viability, T/C (second compound 3.16 µM, first compound 0.000949 µM) was 47.7%. The viability, T/C (second compound 3.16 µM, first compound 0.003 µM) was 23.7%, the viability, T/C [13] was 7.85% and the viability, T/C [14] was 2.42%. It also gave a viability, T/C [15] of 1.84%, a viability, T/C [16] of 1.65% and a viability, T/C (second compound 10 µM, first compound 0.000949 µM) of 25.3%. It also gave a viability, T/C (second compound 10 µM, first compound 0.003 µM) of 9.03%, a viability, T/C [17] of 3.09% and a viability, T/C [18] of 1.41%. It also gave a viability, T/C [19] of 0.7% and a viability, T/C [20] of 0.58%.

From PubChem BioAssay AID1918940 (Molecular Pharmacology Branch, DTP, NCI, 2023)
